Measurements published in ChEMBL document CHEMBL1158802, “Bioactive constituents of the leaves of Phyllanthus polyphyllus var. siamensis” (J Nat Prod, 2005).
≈ marks a conversion by molar mass, not a printed value. Calls of active or inactive are those of the source. No cut-off for these calls is given here.

Experiments:
[1] = Cytotoxicity against human BC cells by colorimetric method; format: functional, cell-based
NCI-H187 = experiment: Cytotoxicity against human NCI-H187 cells by colorimetric method; format: functional, cell-based
KB = experiment: Cytotoxicity against human KB cells by colorimetric method; format: functional, cell-based
Vero = experiment: Cytotoxicity against african green monkey Vero cells by colorimetric method; format: cell-based; conditions: Chlorocebus sabaeus

SMILES | IC50 [1] [µg/mL] | IC50 (NCI-H187) [µg/mL] | IC50 (KB) [µg/mL] | IC50 (Vero) [µg/mL] | Activity (NCI-H187) | Activity (KB)
CC1(C)CC[C@]2(C(=O)O)CC[C@]3(C)C(=CC[C@@H]4[C@@]5(C)CC[C@H](O)[C@@](C)(CO)[C@@H]5CC[C@]43C)[C@@H]2C1 [HEDERAGENIN] | > 5 | > 5 | > 5 | – | – | –
CC(=O)OC[C@@]1(C)[C@@H]2CC[C@]3(C)[C@H](CC=C4[C@@H]5CC(C)(C)CC[C@]5(C(=O)O)CC[C@]43C)[C@@]2(C)CC[C@@H]1O[C@@H]1OC[C@H](OC(C)=O)[C@H](OC(C)=O)[C@H]1OC(C)=O | 3.6 (≈ 4.66 µM) | 2.2 (≈ 2.85 µM) | 3.7 (≈ 4.79 µM) | – | – | –
OC[C@H](Cc1ccc2c(c1)OCO2)[C@H](CO)Cc1ccc2c(c1)OCO2 [DIHYDROCUBEBIN] | > 5 | > 5 | > 5 | – | – | –
CC(=O)O[C@@H]1[C@@H](OC(C)=O)[C@H](O[C@H]2CC[C@]3(C)[C@H]4CC=C5[C@@H]6CC(C)(C)CC[C@]6(C(=O)O)CC[C@@]5(C)[C@]4(C)CC[C@H]3C2(C)C)OC[C@@H]1OC(C)=O | 3.3 (≈ 4.62 µM) | – | – | 3.2 (≈ 4.48 µM) | inactive | inactive
Cc1c2ccncc2c(C)c2c1[nH]c1ccccc12 [ELLIPTECINE] | 0.36 (≈ 1.46 µM) | 0.32 (≈ 1.3 µM) | 0.26 (≈ 1.06 µM) | – | – | –
O=C1C=C2C=C[C@@H](O)C[C@H]2O1 [MENISDAURILIDE] | > 5 | > 5 | > 5 | – | – | –
CC(=O)O[C@H]1[C@H](O[C@H]2CC[C@@]3(C)[C@@H](CC[C@]4(C)[C@@H]3CC=C3[C@@H]5CC(C)(C)CC[C@]5(C(=O)O)CC[C@]34C)[C@]2(C)CO)OC[C@H](O)[C@@H]1O | – | – | – | – | inactive | –
CC(=O)O[C@@H]1[C@@H](O)[C@H](O[C@H]2CC[C@@]3(C)[C@@H](CC[C@]4(C)[C@@H]3CC=C3[C@@H]5CC(C)(C)CC[C@]5(C(=O)O)CC[C@]34C)[C@]2(C)CO)OC[C@@H]1O | – | – | – | – | inactive | inactive
COc1cc(C[C@@H](CO)[C@H](CO)Cc2ccc(O)c(OC)c2)ccc1O [(+)-SECOISOLARICIRESINOL] | > 5 | > 5 | > 5 | – | – | –
CC1(C)CC[C@]2(C(=O)O)CC[C@]3(C)C(=CC[C@@H]4[C@@]5(C)CC[C@H](O[C@@H]6OC[C@H](O)[C@H](O)[C@H]6O)[C@@](C)(CO)[C@@H]5CC[C@]43C)[C@@H]2C1 | – | – | – | – | inactive | inactive
CC1(C)CC[C@]2(C(=O)O)CC[C@]3(C)C(=CC[C@@H]4[C@@]5(C)CC[C@H](O[C@@H]6OC[C@H](O)[C@H](O)[C@H]6O)C(C)(C)[C@@H]5CC[C@]43C)[C@@H]2C1 | 1.7 (≈ 2.89 µM) | 3.2 (≈ 5.43 µM) | – | 2.8 (≈ 4.76 µM) | – | inactive
CC(=O)O[C@H]1CO[C@@H](O[C@H]2CC[C@@]3(C)[C@@H](CC[C@]4(C)[C@@H]3CC=C3[C@@H]5CC(C)(C)CC[C@]5(C(=O)O)CC[C@]34C)[C@]2(C)CO)[C@H](O)[C@H]1O | 3.6 (≈ 5.57 µM) | – | – | 10.7 (≈ 16.5 µM) | inactive | inactive
